Laboratory results reported in patent US20200385396A1, “Compond for treatment or prevention of obesity or diseases related to obesity, and application thereof” (SHANGHAI INSTITUTES FOR BIOLOGICAL SCIENCES, CHINESE …, priority 2017, published 2020).

Key:
Assay type in all cases: in vivo, mouse
high-fat diet obese mice [1] = test: Fat and muscle content (magnetic resonance) of high-fat diet obese mice
Procedure: (§1) Mice were intraperitoneally injected with DMSO or HLY72 (dissolved in DMSO) 25 μL within 2 hours before turning off the lamp. During the intragastric experiment, the high concentration of HLY72 dissolved in DMSO was dissolved in 10% cyclodextrin, and the total volume was 100 μL Volume by gavage, so that the final concentration of DMSO was less than 10%. The diet was weighed at the 3rd hour, the 6th hour, the 12th hour, and the 24th hour respectively after the lights out. The corresponding mouse body weight was also weighed at the same time before the daily administration. The fat content of mice was measured with the magnetic resonance fat content measuring instrument of the animal platform in SIBCB.
In the experiment, high-fat diets were used to feed obese mice weighing about 40 grams for 22 weeks, according to the way used in the previous 3 courses.

[2] = system: high-fat-induced obese mice; test: Weight loss in high-fat-induced obese mice, periodic intermittent administration; details: 20 mg/kg
Source text: All animal experiments were approved by the Animal Management Committee of SIBCB. C57BL/6 mice were purchased from Lingchang company (normal mice and high-fat diet-induced obese mice), C57/BLJ6 (NUCB2 gene knockout mice for breeding and background purification) were purchased from Lingchang company, OB/OB mice were purchased from Slack company. A high-fat diet (45% kcal, D12451) for inducing obese mice was purchased from Research Diets. Starting from the sixth week, it was fed with high-fat diet for 14-25 weeks. The rest of the mice used normal diet (13.5% kcal). The mice were housed in the SPF grade animal house of SIBCB. The lights were turned off for 12 hours (19: 00-07: 00), and the lights were turned on for 12 hours (07: 00-19: 00).
as §1
According to the previous results, it is considered that HLY72 should not be used continuously for a long time. In view of the fact that many mechanisms of NUCB2 functioning are still unclear, the simplest intermittent drug administration method was selected, that is, the drug was administered for 3 days, stopped for 4 days, one dosing cycle per week, and repeated for 3 courses (FIG. 10a).
In the high-fat-induced obese mouse model, three days after the first injection of HLY72, the body weight of the mice is decreased from 33.56±0.63 g to 31.61±0.74 g, and three days after the second administration, the body weight of mice is decreased from 31.23±0.57 g to 29.36±0.58 g, three days after the third administration, the body weight of mice is decreased from 29.39±0.51 g to 27.80±0.62 g, at the end of 21 days after 3 cycles, the overall weight of the mice is decreased from 33.56±0.63 g to 27.65±0.54 g (FIG. 10b). The whole process corresponds to 16.88%±0.51% of the total weight loss (FIG. 10c).

high-fat diet obese mice [3] = test: Blood biochemical tests and liver slices of obese mice; details: 20 mg/kg
Procedure: Mouse liver tissues were taken and fixed in 4% paraformaldehyde at 4° C. overnight. It was washed twice with PBS buffer solution in 30% and 50% ethanol for 30 minutes each, and stored in 70% ethanol at 4° C. (1) Gradient dehydration of ethanol: 80% ethanol for 30 minutes, 95% ethanol for 30 minutes, 100% ethanol for 15 minutes, and fresh 100% ethanol for 15 minutes. (2) Xylene transparent: ½ absolute ethanol plus ½ xylene for 15 minutes, xylene for 10 minutes, and fresh xylene for 10 minutes. (3) Wax immersion, embedding, sectioning: ½ xylene plus ½ paraffin for 30 minutes, paraffin 1 for 90 minutes, paraffin 2 for 120 minutes, paraffin 3 overnight for embedding, conventional section thickness was 4 μm, pasted on clean glass slides that have been processed, the slides were baked at 37° C. overnight, collected in a slide box and sealed at 4° C. (4) Xylene dewaxing, gradient ethanol rehydration: tissue sections were dewaxed three times with xylene, 10 minutes each time, and placed in ½ xylene plus ½ absolute ethanol for 15 minutes. After 5 minutes each of 100%, 90%, 80%, 70%, 50% and 30% ethanol, it was put in pure water for 5 minutes. (5) HE staining, filming: hematoxylin staining at room temperature for 20 minutes, rinsed under running water, color separation with 0.1% hydrochloric acid and ethanol for 1 second, rinsed under running water, after 1 minute each of 30%, 50%, 70%, 80% and 95% ethanol, it was stained with 1% eosin for 1 minute. It was put in absolute ethanol for 1 minute and dehydrated with fresh absolute ethanol twice for 5 minutes each time, it was put in ½ absolute ethanol plus ½ xylene for 15 minutes, and then xylene 1, 2, 3 for 5 minutes each time. Sealed with neutral gum and stored at room temperature in a dry place. The cell platform Olympus BX51 microscope was used for filming.
The effects on the various adverse indicators of obesity after drug administration were detected.

normal mice = test: Food intake of mice after single intraperitoneal injection
Procedure: as §1
The next question we are very concerned about is whether HLY78 has similar functions to NUCB2 protein in mice. Up to now, the most classic function reported for NUCB2 protein is to reduce the food intake of mice at night. Therefore, the experiment was designed: 20 mg/kg of HLY78 was injected intraperitoneally within two hours before turning off the lights at night, and then the food intake of the mice was measured at different time points (0-3 h, 0-6 h, 0-12 h, 0-24 h). […] During the three days of the adaptive injection period before HLY78 injection, both groups of mice were injected with DMSO. On the day of injection of HLY78 and the two days before the injection of DMSO, the body weight of the two groups of mice is also the same (FIG. 2b).
Next, two small molecules HLY72 and HLY103 were selected to perform functional experiments on the food intake in mice.

For C=Cc1cccc2c1N(C)Cc1cc3c(cc1-2)OCO3 [HLY72], the weight of mice (high-fat diet obese mice [1]; obese mice about 40 g, high-fat diet 22 weeks, 20 mg/kg courses of injection) was “significantly reduce”, the “increase of the proportion of muscle” value (high-fat diet obese mice [1]; obese mice, 20 mg/kg courses) was “about 9 percentage points” and the fat content (high-fat diet obese mice [1]; obese mice, MRI fat content measuring instrument, 20 mg/kg courses) was “significantly reduced”. The “average daily food intake in the three administration periods compared with the DMSO group” value [2] was “significant decrease”, the “overall weight at the end of 21 days after 3 cycles” value ([2]; 3 cycles) was 27.65 ± 0.54 g and the “body weight before the first administration” value ([2]; 3 days on / 4 days off, start) was 33.56 ± 0.63 g. The “body weight three days after the first injection” value ([2]; course 1) was 31.61 ± 0.74 g, the “body weight before the second administration” value ([2]; course 2) was 31.23 ± 0.57 g and the “body weight three days after the second administration” value ([2]; course 2) was 29.36 ± 0.58 g. The “body weight before the third administration” value ([2]; course 3) was 29.39 ± 0.51 g, the “body weight three days after the third administration” value ([2]; course 3) was 27.80 ± 0.62 g and the total weight loss ([2]; whole process, 21 days, 3 cycles) was 16.88%±0.51%. The “alanine transaminase ALT” value (high-fat diet obese mice [3]) was “decreased”, the “aspertate aminotransferase AST” value (high-fat diet obese mice [3]) was “does not change” and the blood glucose (high-fat diet obese mice [3]) was “decreased significantly”. For the same compound, the cholesterol levels (high-fat diet obese mice [3]) was “decreased significantly”, the triacylglycerol (high-fat diet obese mice [3]) was “decreased significantly” and the “fatty liver caused by high fat (liver slices)” value (high-fat diet obese mice [3]; HE staining) was “well treated”. For the same compound, the “food intake of mice” value (normal mice; 7.5 mg/kg) was “no significant effect”, the “food intake of mice” value (normal mice; 15 mg/kg) was “significant gradient effect” and the “food intake of mice” value (normal mice; 30 mg/kg) was “significant gradient effect”.
